Experimental data as given in ChEMBL document CHEMBL5244273, “Tuberculosis: An Overview of the Immunogenic Response, Disease Progression, and Medicinal Chemistry Efforts in the Last Decade toward the Development of Potential Drugs for Extensively Drug-Resistant Tuberculosis Strains” (J Med Chem, 2021).
≈ marks a conversion by molar mass, not a printed value.

Legend:
Format in all cases: functional
[1] = tested on: Mycobacterium tuberculosis; test: Antimycobacterial activity against multidrug-resistant Mycobacterium tuberculosis H37Rv assessed as inhibition of bacterial growth by alamar blue assay
[2] = tested on: Mycobacterium tuberculosis; test: Antimycobacterial activity against extensively-resistant Mycobacterium tuberculosis H37Rv assessed as inhibition of bacterial growth by alamar blue assay
[3] = tested on: Mycobacterium tuberculosis; test: Antimycobacterial activity against isoniazid resistant Mycobacterium tuberculosis clinical isolate incubated for 7 days by resazurin microtitre assay; details: 168 h, time 7 day
[4] = tested on: Mycobacterium tuberculosis; test: Antimycobacterial activity against isoniazid, rifampicin, ethambutol, pyrazinamide, capreomycin, and ethionamide resistant Mycobacterium tuberculosis clinical isolate incubated for 7 days by resazurin microtitre assay; details: 168 h, time 7 day
[5] = tested on: Mycobacterium tuberculosis; test: Antimycobacterial activity against isoniazid, rifampicin, ethambutol, pyrazinamide, streptomycin, capreomycin, amikacin, kanamycin, ofloxacin, and ethionamide resistant Mycobacterium tuberculosis clinical isolate incubated for 7 days by resazurin microtitre assay; details: 168 h, time 7 day
[6] = tested on: Mycobacterium tuberculosis; test: Antitubercular activity against multidrug resistant Mycobacterium tuberculosis clinical isolate 1 by resazurin microtitre assay
[7] = tested on: Mycobacterium tuberculosis; test: Antitubercular activity against multidrug resistant Mycobacterium tuberculosis clinical isolate 2 by resazurin microtitre assay
[8] = tested on: Mycobacterium tuberculosis; test: Antitubercular activity against multidrug resistant Mycobacterium tuberculosis clinical isolate 3 by resazurin microtitre assay
[9] = tested on: Mycobacterium tuberculosis; test: Antitubercular activity against multidrug resistant Mycobacterium tuberculosis clinical isolate 4 by resazurin microtitre assay
[10] = tested on: Mycobacterium tuberculosis; test: Antitubercular activity against multidrug resistant Mycobacterium tuberculosis clinical isolate 5 by resazurin microtitre assay
[11] = tested on: Mycobacterium tuberculosis; test: Antitubercular activity against multidrug resistant Mycobacterium tuberculosis clinical isolate 6 by resazurin microtitre assay
[12] = tested on: Mycobacterium tuberculosis; test: Antitubercular activity against multidrug resistant Mycobacterium tuberculosis clinical isolate 7 by resazurin microtitre assay
[13] = tested on: Mycobacterium tuberculosis; test: Antitubercular activity against multidrug resistant Mycobacterium tuberculosis clinical isolate 8 by resazurin microtitre assay
[14] = tested on: Mycobacterium tuberculosis; test: Antitubercular activity against multidrug resistant Mycobacterium tuberculosis clinical isolate 9 by resazurin microtitre assay
[15] = tested on: Mycobacterium tuberculosis; test: Antitubercular activity against multidrug resistant Mycobacterium tuberculosis clinical isolate 10 by resazurin microtitre assay
[16] = tested on: Mycobacterium tuberculosis; test: Antitubercular activity against multidrug resistant Mycobacterium tuberculosis clinical isolate 11 by resazurin microtitre assay
[17] = tested on: Mycobacterium tuberculosis; test: Antitubercular activity against extensively drug resistant Mycobacterium tuberculosis KMRC 0 0203-0 0197 by resazurin microtitre assay
[18] = tested on: Mycobacterium tuberculosis; test: Antitubercular activity against extensively drug resistant Mycobacterium tuberculosis clinical isolate 1 by resazurin microtitre assay
[19] = tested on: Mycobacterium tuberculosis; test: Antitubercular activity against extensively drug resistant Mycobacterium tuberculosis clinical isolate 2 by resazurin microtitre assay
[20] = tested on: Mycobacterium tuberculosis; test: Antitubercular activity against extensively drug resistant Mycobacterium tuberculosis clinical isolate 3 by resazurin microtitre assay
[21] = tested on: Mycobacterium tuberculosis; test: Antitubercular activity against extensively drug resistant Mycobacterium tuberculosis clinical isolate 4 by resazurin microtitre assay
[22] = tested on: Mycobacterium tuberculosis; test: Antitubercular activity against extensively drug resistant Mycobacterium tuberculosis clinical isolate 5 by resazurin microtitre assay
[23] = tested on: Mycobacterium tuberculosis; test: Antitubercular activity against extensively drug resistant Mycobacterium tuberculosis clinical isolate 6 by resazurin microtitre assay
[24] = tested on: Mycobacterium tuberculosis; test: Antitubercular activity against extensively drug resistant Mycobacterium tuberculosis clinical isolate 7 by resazurin microtitre assay
[25] = tested on: Mycobacterium tuberculosis; test: Antitubercular activity against extensively drug resistant Mycobacterium tuberculosis clinical isolate 8 by resazurin microtitre assay
[26] = tested on: Mycobacterium tuberculosis; test: Antitubercular activity against extensively drug resistant Mycobacterium tuberculosis clinical isolate 9 by resazurin microtitre assay
[27] = tested on: Mycobacterium tuberculosis; test: Antitubercular activity against extensively drug resistant Mycobacterium tuberculosis clinical isolate 10 by resazurin microtitre assay
[28] = tested on: Mycobacterium tuberculosis; test: Antitubercular activity against extensively drug resistant Mycobacterium tuberculosis clinical isolate 11 by resazurin microtitre assay
[29] = tested on: Mycobacterium tuberculosis; test: Antimycobacterial activity against isoniazid, streptomycin, ethambutol and ethionamide resistant Mycobacterium tuberculosis clinical isolate A
[30] = tested on: Mycobacterium tuberculosis; test: Antimycobacterial activity against isoniazid and ethionamide resistant Mycobacterium tuberculosis clinical isolate B
[31] = tested on: Mycobacterium tuberculosis; test: Antimycobacterial activity against isoniazid and ethionamide resistant Mycobacterium tuberculosis clinical isolate E
[32] = tested on: Mycobacterium tuberculosis; test: Antimycobacterial activity against isoniazid, streptomycin and ethionamide resistant Mycobacterium tuberculosis clinical isolate F
[33] = tested on: Mycobacterium tuberculosis; test: Antimycobacterial activity against isoniazid, streptomycin, rifampicin, ethambutol and ethionamide resistant Mycobacterium tuberculosis clinical isolate G
[34] = tested on: Mycobacterium tuberculosis; test: Antimycobacterial activity against isoniazid, streptomycin, rifampicin, ethambutol, ethionamide and ofloxacin resistant Mycobacterium tuberculosis clinical isolate H
[35] = tested on: Mycobacterium tuberculosis; test: Antimycobacterial activity against multidrug resistant Mycobacterium tuberculosis H37Rv
[36] = tested on: Mycobacterium tuberculosis; test: Antimycobacterial activity against extensively drug resistant Mycobacterium tuberculosis H37Rv
[37] = tested on: Mycobacterium tuberculosis; test: Antimycobacterial activity against isoniazid, streptomycin, and rifampicin resistant Mycobacterium tuberculosis clinical isolate C

Row | Structure (SMILES) | MIC [6] [µg/mL] | MIC [7] [µg/mL] | MIC [8] [µg/mL] | MIC [9] [µg/mL] | MIC [10] [µg/mL] | MIC [11] [µg/mL] | MIC [12] [µg/mL] | MIC [13] [µg/mL] | MIC [14] [µg/mL] | MIC [15] [µg/mL] | MIC [16] [µg/mL] | MIC [17] [µg/mL] | MIC [18] [µg/mL] | MIC [19] [µg/mL] | MIC [20] [µg/mL] | MIC [21] [µg/mL] | MIC [22] [µg/mL] | MIC [23] [µg/mL] | MIC [24] [µg/mL] | MIC [25] [µg/mL] | also measured
1 | COc1ccccc1NC(=O)c1c(Nc2cccc(C)c2)nn2c(O)cc(C)nc12 |  |  |  |  |  |  |  |  |  |  |  |  |  |  |  |  |  |  |  |  | MIC [1]: 6.25 µg/mL (≈ 15.5 µM); MIC [2]: 12.5 µg/mL (≈ 31 µM)
2 | CC(=O)N1/C(=C/c2ccc(Br)cc2)C(=O)c2ccccc21 |  |  |  |  |  |  |  |  |  |  |  |  |  |  |  |  |  |  |  |  | MIC [3]: 15.2 µM (≈ 5.2 µg/mL); MIC [4]: 9.15 µM (≈ 3.13 µg/mL); MIC [5]: 15.2 µM (≈ 5.2 µg/mL)
3 | CC(=O)N1/C(=C/c2ccc(-c3ccc(Cl)cc3)cc2)C(=O)c2ccccc21 |  |  |  |  |  |  |  |  |  |  |  |  |  |  |  |  |  |  |  |  | MIC [3]: 8.37 µM (≈ 3.13 µg/mL); MIC [4]: 10.4 µM (≈ 3.89 µg/mL); MIC [5]: 8.37 µM (≈ 3.13 µg/mL)
4 | Cc1cc(O)n2nc(Nc3ccc(F)c(F)c3)c(C(=O)Nc3ccc(F)cc3)c2n1 |  |  |  |  |  |  |  |  |  |  |  |  |  |  |  |  |  |  |  |  | MIC [1]: 3.12 µg/mL (≈ 7.55 µM); MIC [2]: 25 µg/mL (≈ 60.5 µM)
5 | CC[C@@H](CO)NCCN[C@@H](CC)CO [ETHAMBUTOL] | 6.25 (≈ 30.6 µM) | 6.25 (≈ 30.6 µM) | 3.13 (≈ 15.3 µM) | 6.25 (≈ 30.6 µM) | 6.25 (≈ 30.6 µM) | 6.25 (≈ 30.6 µM) | 6.25 (≈ 30.6 µM) | 6.25 (≈ 30.6 µM) | 3.13 (≈ 15.3 µM) | 0.78 (≈ 3.82 µM) | 6.25 (≈ 30.6 µM) | 6.25 (≈ 30.6 µM) | 6.25 (≈ 30.6 µM) | 6.25 (≈ 30.6 µM) | 6.25 (≈ 30.6 µM) | 6.25 (≈ 30.6 µM) | 6.25 (≈ 30.6 µM) | 6.25 (≈ 30.6 µM) | 12.5 (≈ 61.2 µM) | 6.25 (≈ 30.6 µM) | MIC [26]: 6.25 µg/mL (≈ 30.6 µM); MIC [27]: 6.25 µg/mL (≈ 30.6 µM); MIC [28]: 6.25 µg/mL (≈ 30.6 µM)
6 | CCc1cc(C(N)=S)ccn1 [ETHIONAMIDE] |  |  |  |  |  |  |  |  |  |  |  |  |  |  |  |  |  |  |  |  | MIC [29]: 114 µg/mL (≈ 686 µM); MIC [30]: > 114 µg/mL; MIC [31]: > 80 µg/mL; MIC [32]: > 80 µg/mL; MIC [33]: > 114 µg/mL; MIC [34]: 114 µg/mL (≈ 686 µM)
7 | NNC(=O)c1ccncc1 [ISONIAZID] | 12.5 (≈ 91.1 µM) | 12.5 (≈ 91.1 µM) | 3.13 (≈ 22.8 µM) | 25 (≈ 182 µM) | 12.5 (≈ 91.1 µM) | 25 (≈ 182 µM) | 50 (≈ 365 µM) | 12.5 (≈ 91.1 µM) | 25 (≈ 182 µM) | 3.13 (≈ 22.8 µM) | 12.5 (≈ 91.1 µM) | 25 (≈ 182 µM) | 12.5 (≈ 91.1 µM) | 3.13 (≈ 22.8 µM) | 3.13 (≈ 22.8 µM) | 12.5 (≈ 91.1 µM) | 12.5 (≈ 91.1 µM) | 12.5 (≈ 91.1 µM) | 6.25 (≈ 45.6 µM) | 12.5 (≈ 91.1 µM) | MIC [1]: 6.25 µg/mL (≈ 45.6 µM); MIC [2]: 50 µg/mL (≈ 365 µM); MIC [26]: 50 µg/mL (≈ 365 µM); MIC [27]: > 200 µg/mL; MIC [28]: 6.25 µg/mL (≈ 45.6 µM); MIC [35]: 6.25 µg/mL (≈ 45.6 µM); MIC [36]: 50 µg/mL (≈ 365 µM)
8 | NC(=O)c1cnccn1 [PYRAZINAMIDE] | > 200 | > 200 | > 200 | > 200 | > 200 | > 200 | > 200 | > 200 | > 200 | > 200 | > 200 | > 200 | > 200 | > 200 | > 200 | > 200 | > 200 | > 200 | > 200 | > 200 | MIC [26]: > 200 µg/mL; MIC [27]: > 200 µg/mL; MIC [28]: > 200 µg/mL
9 | CO[C@H]1/C=C/O[C@@]2(C)Oc3c(C)c(O)c4c(O)c(c(/C=N/N5CCN(C)CC5)c(O)c4c3C2=O)NC(=O)/C(C)=C\C=C\[C@H](C)[C@H](O)[C@@H](C)[C@@H](O)[C@@H](C)[C@H](OC(C)=O)[C@@H]1C [RIFAMPIN] | > 200 | > 200 | > 200 | > 200 | 3.13 (≈ 3.8 µM) | > 200 | > 200 | > 200 | > 200 | 3.13 (≈ 3.8 µM) | 3.13 (≈ 3.8 µM) | 100 (≈ 122 µM) | > 200 | > 200 | > 200 | 6.25 (≈ 7.59 µM) | > 200 | 100 (≈ 122 µM) | > 200 | > 200 | MIC [3]: 0.377 µM (≈ 0.31 µg/mL); MIC [4]: > 12.2 µM; MIC [5]: > 12.2 µM; MIC [26]: > 200 µg/mL; MIC [27]: 6.25 µg/mL (≈ 7.59 µM); MIC [28]: > 200 µg/mL
10 | CN[C@@H]1[C@H](O[C@H]2[C@H](O[C@H]3[C@H](O)[C@@H](O)[C@H](N=C(N)N)[C@@H](O)[C@@H]3N=C(N)N)O[C@@H](C)[C@]2(O)C=O)O[C@@H](CO)[C@H](O)[C@H]1O [STREPTOMYCIN] | 100 (≈ 172 µM) | 1.56 (≈ 2.68 µM) | 0.39 (≈ 0.671 µM) | 0.78 (≈ 1.34 µM) | 3.13 (≈ 5.38 µM) | 25 (≈ 43 µM) | 200 (≈ 344 µM) | 3.13 (≈ 5.38 µM) | 25 (≈ 43 µM) | > 200 | 3.13 (≈ 5.38 µM) | 0.78 (≈ 1.34 µM) | 0.78 (≈ 1.34 µM) | 50 (≈ 86 µM) | > 200 | 0.78 (≈ 1.34 µM) | 50 (≈ 86 µM) | 50 (≈ 86 µM) | 0.78 (≈ 1.34 µM) | > 200 | MIC [29]: > 64 µg/mL; MIC [30]: 8 µg/mL (≈ 13.8 µM); MIC [37]: 32 µg/mL (≈ 55 µM); MIC [31]: 16 µg/mL (≈ 27.5 µM); MIC [32]: > 16 µg/mL; MIC [33]: > 64 µg/mL; MIC [34]: > 64 µg/mL; MIC [26]: 200 µg/mL (≈ 344 µM); MIC [27]: < 0.09 µg/mL; MIC [28]: 200 µg/mL (≈ 344 µM)
